Laboratory results published in patent publication US20250296909A1, “NOVEL BENZENE DERIVATIVE AND IMMUNOSUPPRESSION-RELATED USE THEREOF” (PROVIBIO CO., LTD., priority 2021, published 2025).
Like-named read-outs stand apart in the source and are kept apart here.

How the values were obtained:
[1] = system: spleen T cells; assay: T cell proliferation inhibition (CFSE, FACS), CD3/CD28-activated spleen T cells; type: cell-based, C57BL/6 mice; details: for inhibition at 10 µM / inhibition at 30 µM / inhibition at 50 µM: Mus musculus, T-cell, read-out: Proliferation inhibition rate (%)
Description: To investigate whether the compounds obtained in the Preparation Example have an inhibitory effect on T cell proliferation, the T cell proliferation was determined ex vivo using the fluorescent dye carboxyfluorescein diacetate succinimidyl ester (CFSE), which binds to intracellular molecules by covalent bonds.
Spleens were harvested and minced from C57BL/6 mice at 7 weeks of age, and then single cells were isolated using a strainer (40 μm pore size, SPL). Red blood cells were removed using ACK (Ammonium-Chloride-Potassium) lysis buffer to isolate only leukocytes. Subsequently, CD90.2 microbeads (130-121-278, Miltenyi Biotech.) were added, and subjected to react at 4° C. for 20 minutes. After that, spleen T cells were isolated using a MACS Magnetic Stand and LS column. The isolated T cells from the spleen were resuspended in 1 mL of Free media (RPMI-1640+200 U/mL penicillin+200 μg/mL streptomycin), followed by the addition of 0.3 μL of CFSE (10 mM), and reacted at 37° C. for 5 minutes. Subsequently, 10 mL of Free media was added to stop the reaction, and the cells were centrifuged to obtain the cell pellet. RPMI 1640 medium containing 10% FBS, 100 U/mL penicillin, and 100 μg/mL streptomycin was added to suspend the cells, and 2×10^5 cells per well were seeded into a 96-well plate and T cells were activated by treatment with CD3 and CD28 antibodies (each at 0.5 μg/mL).
The compound diluted in DMSO was treated in triplicate at concentrations of 10 μM, 30 μM, and 50 μM, respectively. After incubation at 37° C. with 5% CO2 for 3 days, cell proliferation levels were determined using a FACS Canto machine.
In the FACS graph of FIG. 1, the y-axis represents the quantity (number) of cells, while the x-axis represents the fluorescence level of the cells. […] This reduction in CFSE fluorescence results in a leftward shift along the x-axis in the graph. This indicates cell proliferation.
To collectively indicate the proliferation inhibition rate for the experimental results, the relative value of the proliferation amount after compound administration to the proliferation amount after CD3/CD28+DMSO administration was calculated. Subsequently, it was converted into an inhibition amount and expressed as a percentage, thereby determining the proliferation inhibition rate. Specifically, the proliferation inhibition rate was calculated as follows: […]

[2] = system: T lymphocyte cell line Jurkat E6-1; assay: Cytotoxicity experiment (CCK-8, relative cell survival); type: cell-based; details: 24 hours, untreated cells = 100%
Description: To evaluate the cytotoxicity of the compound according to the present invention, the following experiment was conducted.
The T lymphocyte cell line Jurkat E6-1, purchased from the Korean Cell Line Bank, was cultured in RPMI-1640 medium comprising 10% FBS, 100 U/mL penicillin, and 100 μg/mL streptomycin. After culturing, the cells were harvested and centrifuged at 1,300 rpm for 5 minutes. After removal of the supernatant, the cells were resuspended in the same medium at a concentration of approximately 2.2×10^5 cells/mL, and 90 μL of the cell suspension was distributed per well into a 96-well plate (Costar 96 well cell culture plate, Corning). After treating 10 μL of each compound at different concentrations onto the respective wells of the plate, it was cultured for 24 hours at 37° C. in a 5% CO2 incubator. Subsequently, 10 μL of CCK-8 was added to each well, and it was cultured again for 2 hours at 37° C. in a 5% CO2 incubator. Absorbance was then measured at 450 nm to determine the relative cell survival rate compared to untreated cells, as shown in Table 4.
The values listed in Table 4 represent the relative cell survival rates in the groups treated with each compound at different concentrations, with the cell survival rate of untreated cells set as 100%.

[3] = Table 3 (compounds not belonging to Formula 1), 10 μM
[4] = Table 3 (compounds not belonging to Formula 1), 30 μM
[5] = Table 3 (compounds not belonging to Formula 1), 50 μM
[6] = 72 h, Table 2, 10 μM, 3 days, relative to CD3/CD28+DMSO
[7] = 72 h, Table 2, 30 μM, 3 days, relative to CD3/CD28+DMSO
[8] = 72 h, Table 2, 50 μM, 3 days, relative to CD3/CD28+DMSO
[9] = Table 2, 10 μM, 3 days, relative to CD3/CD28+DMSO
[10] = Table 2, 30 μM, 3 days, relative to CD3/CD28+DMSO
[11] = Table 2, 50 μM, 3 days, relative to CD3/CD28+DMSO

SMILES | Relative cell survival rate (%) ([2]; 10 μM) | Relative cell survival rate (%) ([2]; 20 μM) | Relative cell survival rate (%) ([2]; 30 μM) | Relative cell survival rate (%) ([2]; 50 μM) | inhibition at 10 µM [1, 6] | inhibition at 30 µM [1, 7] | inhibition at 50 µM [1, 8] | other results
O=C(Nc1ccccc1)c1ccncc1Br [Compound 1] | – | – | – | – | – | – | – | inhibition at 10 µM [1, 3]: 9%; inhibition at 30 µM [1, 4]: 6%; inhibition at 50 µM [1, 5]: 7%
Cc1ccccc1NC(=O)c1ccccc1Br [Compound 2] | – | – | – | – | – | – | – | inhibition at 10 µM [1, 3]: 11%; inhibition at 30 µM [1, 4]: 10%; inhibition at 50 µM [1, 5]: 11%
Cc1ccccc1NC(=O)c1ccccc1F [Compound 3] | – | – | – | – | – | – | – | inhibition at 10 µM [1, 3]: 9%; inhibition at 30 µM [1, 4]: 15%; inhibition at 50 µM [1, 5]: 18%
O=C(NCCCc1ccccc1)c1ccccc1Br [Compound 4] | – | – | – | – | – | – | – | inhibition at 10 µM [1, 3]: 23%; inhibition at 30 µM [1, 4]: 12%; inhibition at 50 µM [1, 5]: 16%
O=C(Nc1ccccc1Br)c1ccccc1Br [Compound 9] | – | – | – | – | – | – | – | inhibition at 10 µM [1, 3]: 0%; inhibition at 30 µM [1, 4]: 0%; inhibition at 50 µM [1, 5]: 0%; cell proliferation read by FACS (FIG. 2) ([1]; even at a concentration of 50 μM): no inhibition of cell proliferation
CCCCCCCCCNC(=O)/C=C/c1ccccc1Br [Compound 10] | 91% | 88% | 85% | 83% | 15% | 72% | 92% | inhibition at 10 µM [1, 3]: 5%; inhibition at 30 µM [1, 4]: 9%; inhibition at 50 µM [1, 5]: 3%
CCCCCCCCCCCCNC(=O)c1ncccc1Cl [Compound 11] | – | – | – | – | 10% | 62% | 99% | –
CCCCCCCCCCCCNC(=O)c1ccncc1Cl [Compound 12] | 100% | 92% | 83% | 79% | 5% | 38% | 99% | –
CCCCCCCCCCCCNC(=O)c1cccnc1Cl [Compound 13] | 95% | 71% | 70% | 57% | 10% | 48% | 100% | –
CCCCCCCCCCCCNC(=O)c1ccnc(C)c1 [Compound 15] | – | – | – | – | 10% | 35% | 90% | –
CCCCCCCCCCCCNC(=O)c1ccccc1C(=O)c1ccc(Cl)cc1 [Compound 16] | 121% | 101% | 92% | 85% | 0% | 100% | 100% | –
O=C(NCCCCCCCCCC1CO1)c1ccccc1Br (stereo not shown) [Compound 17] | 106% | 80% | 80% | 66% | – | – | – | –
CCCCCCCCCCCCNC(=O)c1cccc2ccccc12 [Compound 18] | 102% | 101% | 99% | 99% | – | – | – | –
CCCCCCCCCCCCNC(=O)c1nccc2ccccc12 [Compound 20] | 113% | 108% | 107% | 105% | – | – | – | –
CCCCCCCCCCCCNC(=O)c1ccc2cccc(O)c2n1 [Compound 21] | 101% | 106% | 109% | 124% | – | – | – | –
CCCCCCCCCCCCNC(=O)c1ccc2ccccc2n1 [Compound 22] | 42% | 42% | 39% | 36% | – | – | – | –

SMILES | Relative cell survival rate (%) ([2]; 10 μM) | Relative cell survival rate (%) ([2]; 20 μM) | Relative cell survival rate (%) ([2]; 30 μM) | Relative cell survival rate (%) ([2]; 50 μM) | inhibition at 10 µM [1, 6] | inhibition at 30 µM [1, 7] | inhibition at 50 µM [1, 8] | other results
CCCCCCCCCCCCNC(=O)c1cc2ccccc2cc1N [Compound 23] | 66% | 62% | 62% | 54% | – | – | – | –
CCCCCCCCCCCCNC(=O)c1cccnc1SC [Compound 24] | 71% | 68% | 61% | 54% | – | – | – | –
CCCCCCCCCCCCNC(=O)Cc1ccccc1 [Compound 25] | 95% | 90% | 87% | 84% | 20% | 90% | 99% | –
CCCCCCCCCCCCNC(=O)c1ccccc1-c1ccc(C)cc1 [Compound 27] | 109% | 77% | 71% | 63% | 62% | 96% | 100% | –
CCCCCCCCCCCCNC(=O)c1cc(Cl)cc(Cl)c1O [Compound 28] | – | – | – | – | 11% | 47% | 91% | –
CCCCCCCCCCCCNC(=O)c1cccnc1OC [Compound 32] | – | – | – | – | 12% | 42% | 54% | –
CCCCCCCCCCCC(=O)Nc1ccccc1Br [Compound 42] | 110% | 109% | 104% | 103% | – | – | – | –
CCCCCCCCCCC(CNCc1ccccc1Br)Cc1ccccc1Br (stereo not shown) [Compound 44] | 100% | 98% | 94% | 93% | – | – | – | –
CCCCCCCCCCCCNS(=O)(=O)c1ccccc1N [Compound 46] | – | – | – | – | – | – | – | Proliferation inhibition rate (%) [1, 9]: 47%; Proliferation inhibition rate (%) [1, 10]: 94%; Proliferation inhibition rate (%) [1, 11]: 93%
CCCCCC(=O)Nc1ccc(CNC(=O)c2ccccc2Br)cc1 [Compound 47] | 98% | 97% | 97% | 96% | – | – | – | –
CCCCCC(=O)Nc1ccccc1CNC(=O)c1ccccc1Br [Compound 48] | 100% | 99% | 99% | 98% | – | – | – | –
CCCCCC(=O)Nc1cccc(CNC(=O)c2ccccc2Br)c1 [Compound 49] | 98% | 98% | 98% | 98% | – | – | – | –
CCCCCCCCCCCCNC(=O)c1ccc(Cl)cc1Cl [Compound 60] | – | – | – | – | 10% | 72% | 98% | –
CCCCCCCCCCCCNS(=O)(=O)c1cnccc1O [Compound 72] | – | – | – | – | 68% | 80% | 86% | –
CCCCCCCCCCCCNC(=O)c1ncccn1 [Compound 79] | – | – | – | – | 46% | 88% | 100% | –
CCCCCCCCCCCCNC(=O)c1cccnc1S [Compound 80] | – | – | – | – | – | – | – | Proliferation inhibition rate (%) [1, 9]: 43%; Proliferation inhibition rate (%) [1, 10]: 100%; Proliferation inhibition rate (%) [1, 11]: 100%
